Results: patent US20130239239A1, “LMCD1 CANCER MARKERS AND METHODS FOR THEIR USE” (Academia Sinica, priority 2012, published 2013)

Key:
PLC/PRF/5 cells = assay: Trans-well migration assay in PLC/PRF/5 cells; format: cell-based, human; conditions: 10 nM 17β-estradiol, 24 hours
Procedure: For trans-well assay, 1×10^4 cells resuspended in serum-free medium were seeded into the upper chamber of an insert with an 8.0-μm pore size of polycarbonate membrane (BD Biosciences) and then placed into the bottom chamber containing 10% FBS as chemoattractant. Cells were allowed to migrate for 24 hours followed by methanol fixation and Giemsa staining (MERCK Darmstadt, Germany). Un-migrated cells on the membrane apical side were removed. Migrated cells were photographed with a phase contrast microscope and the number was counted by using Image-Pro Plus software. All experiments were performed in triplicates. […] Images in the top panel of FIG. 3e are representative of three independent experiments performed in triplicate. Quantification of average migrated cell number is shown in bar graphs below the images (±SEM).
(§1) Trans-well migration assays were performed as in Example 3. Expression of LMCD1-K237R in PLC/PRF/5 cells (1×10^5 cells) was induced by exposure to 10 nM 17β-estradiol. Results are provided in FIG. 4d, with some cells also being treated with the indicated shRNA. Images in FIG. 4d are representative of migration results from three independent experiments, with (+E2) and without (−E2) estradiol treatment. The migration results are quantified by bar graph in FIG. 4e (±SEM). […]

LMCD1-K237R = LMCD1-K237R expression in PLC/PRF/5 cells by reverse-transcription PCR; format: cell-based, human; conditions: 10 nM 17β-estradiol
Procedure: Five independent pLKO.1 lentiviral-based shRNA clones targeting human LMCD1 (NM_014583) from The RNAi Consortium (TRC) library were tested. […] Human shRNA for RAC1 (shRac1) was also obtained from TRC library with number TRCN0000004870: 5′-[…]-3′. pLKO.1-shLuc was used as control. To generate shRNA lentiviral particles, HEK293T cells were co-transfected with a plasmid mixture (pLKO.1-puro-shRNA, pCMVΔR8.91 packaging plasmid, and pMD.G envelope plasmid) by calcium phosphate protocol. Cell medium containing viral particles was collected three times at 24-hour intervals after transfection. The virus-containing medium was aliquoted and used to infect cells or stored at −80° C. until use. Ninety-six hours after infection, cells were subjected to further experimental assays or harvested for LMCD1 or Rac1 gene expression analysis by RT-PCR or Western blotting.
as §1

[1] = system: LMCD1 transfectants in SK-Hep1 cells; assay: Wound healing assay in LMCD1 stable transfectants of SK-Hep1 cells; conditions: dose dependent
Procedure: To test the hypothesis that LMCD1 mutants play a role in cell migration regulation, three different cell migration assays for reflecting alteration of directed migration, random migration, and chemotaxis were performed. Directed migration of these SK-Hep1 transfectants was inspected by wound healing assay. For the wound healing assay, cells were seeded in a 6-well plate at a confluent density and cultured overnight to grow into a monolayer. The culture was scratched with a p200 pipette tip, and the wound was allowed to close for 20 hours. The average reduction of distance between two wound edges was calculated to evaluate the rate of wound closure. […] Cells were photographed immediately after wounding (FIG. 7a upper) and 2 hours after wounding (FIG. 7a lower), with arrows indicating protrusion of cells at the wound edge. […] Images were obtained using an Olympus BX51 fluorescence microscope or a PerkinElmer Ultra View confocal microscope (PerkinElmer Life Sciences).
The bar graph to the right of the images in FIG. 4c provides quantification of average migration results, normalized to the mock cells (±SEM).

[2] = system: LMCD1 transfectants in SK-Hep1 cells; assay: Lamellipodia formation (Arp3 staining, cell morphology) in LMCD1 transfectants; format: cell-based, human; conditions: LMCD1-E135K and LMCD1-K237R cells
Description: Coverslips were mounted on slides using […] mounting medium with DAPI (Vector Laboratories).

[3] = system: Rac1 interaction with Rac1-specific GEFs TrioN, GEF-H1 and Tiam1; conditions: cited from earlier work

Compound: C[C@]12CC[C@@H]3c4ccc(O)cc4CC[C@H]3[C@@H]1CC[C@@H]2O [estrogen, 17β-estradiol]
- cell migration (PLC/PRF/5 cells): up-regulate
- expression of LMCD1-K237R (LMCD1-K237R): up-regulate

Compound: CCN(CC)CCCC(C)Nc1nc(C)cc(Nc2ccc3nc(C)cc(N)c3c2)n1 (centres unmarked) [NSC23766]
- cell mobility (wound closure) [1]: decreased
- lamellipodia extension [2]: inhibited lamellipodia extension

Compound: Rac1 Inhibitor W56: peptide comprising residues 45-60 of the guanine nucleotide exchange factor (GEF) recognition/activation site of Rac1 (MVDGKPVNLGLWDTAG; UniProt P63000 45-60, looked up, fragment)
- inhibition of Rac1 interaction with Rac1-specific GEFs TrioN, GEF-H1 and Tiam1 [3]: selectively inhibits
